This is an account of results in patent US7595395B2, “Gabaergic agents to treat memory deficits” (priority 2005, dated 2009).

Structures are written as SMILES. Where two headings read alike, the source gives them in different places. A value given as a limit tells only on which side of the number the result lay.

In one assay the target is α5β3γ2 GABAA receptor (Rattus norvegicus, UniProt P18508+P19969). Briefly: Two-electrode voltage clamp in Xenopus oocytes, α5β3γ2. To be noted: oocytes. A general note: In two-electrode clamp one electrode senses voltage and the other passes current.
Chain of α5β3γ2 GABAA receptor (P19969 26-464): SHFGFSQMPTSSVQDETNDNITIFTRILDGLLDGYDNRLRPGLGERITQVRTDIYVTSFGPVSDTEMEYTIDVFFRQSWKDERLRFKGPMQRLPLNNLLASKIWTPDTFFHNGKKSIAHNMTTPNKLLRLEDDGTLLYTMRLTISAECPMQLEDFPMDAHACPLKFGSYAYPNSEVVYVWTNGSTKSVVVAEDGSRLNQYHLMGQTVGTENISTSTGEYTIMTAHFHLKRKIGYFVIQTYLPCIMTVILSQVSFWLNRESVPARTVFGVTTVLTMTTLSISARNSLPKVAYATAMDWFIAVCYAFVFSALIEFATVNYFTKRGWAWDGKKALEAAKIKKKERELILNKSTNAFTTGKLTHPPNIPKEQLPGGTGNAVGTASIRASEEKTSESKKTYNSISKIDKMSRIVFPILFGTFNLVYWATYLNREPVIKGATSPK
Chain of α5β3γ2 GABAA receptor (P63079 26-473 partner): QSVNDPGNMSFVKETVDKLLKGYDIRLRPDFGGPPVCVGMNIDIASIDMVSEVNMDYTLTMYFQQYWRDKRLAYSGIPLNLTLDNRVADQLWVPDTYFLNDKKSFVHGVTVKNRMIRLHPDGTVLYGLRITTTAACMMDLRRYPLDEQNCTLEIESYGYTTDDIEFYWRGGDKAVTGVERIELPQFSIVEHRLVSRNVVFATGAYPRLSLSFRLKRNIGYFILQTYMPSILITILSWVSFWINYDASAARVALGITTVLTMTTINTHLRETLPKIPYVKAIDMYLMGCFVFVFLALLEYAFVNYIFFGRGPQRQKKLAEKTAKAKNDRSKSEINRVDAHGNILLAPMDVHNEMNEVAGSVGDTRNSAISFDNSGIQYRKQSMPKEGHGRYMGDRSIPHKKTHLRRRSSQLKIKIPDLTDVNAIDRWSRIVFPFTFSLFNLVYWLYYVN
Chain of α5β3γ2 GABAA receptor (P18508 39-466): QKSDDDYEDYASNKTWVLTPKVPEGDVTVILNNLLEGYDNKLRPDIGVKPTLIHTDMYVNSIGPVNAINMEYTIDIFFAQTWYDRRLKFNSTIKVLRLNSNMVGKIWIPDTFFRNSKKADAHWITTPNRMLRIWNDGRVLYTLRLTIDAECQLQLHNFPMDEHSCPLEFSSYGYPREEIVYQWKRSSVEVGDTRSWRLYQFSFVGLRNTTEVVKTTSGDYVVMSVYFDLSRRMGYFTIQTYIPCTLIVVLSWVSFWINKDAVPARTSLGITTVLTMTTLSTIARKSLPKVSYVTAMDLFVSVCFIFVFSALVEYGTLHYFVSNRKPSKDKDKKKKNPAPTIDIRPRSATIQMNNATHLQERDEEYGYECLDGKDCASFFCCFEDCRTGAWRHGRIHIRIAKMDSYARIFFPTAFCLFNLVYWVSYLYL
Assay [1] has as its target α6β3γ2 benzodiazepine receptor GABA(A) isoform (UniProt P18507+Q16445). The assay can be described thus: Radioligand competition binding, α6β3γ2 BzR/GABA(A) isoform. Set-up: species or system human and rat. The method, then: (§1) The affinity of all ligands at the 6 major recombinant GABAA/BzR subtypes was measured by competition for [^3H]Ro15-1788 binding to HEK-T cells expressing both human and rat GABAA/Bz receptors of composition α1β2γ2 (α1), α2β2γ2 (α2), α3β2γ2 (α3), α4β2γ2 (α4), α5β2γ2 (α5) and α6β2γ2 (α6). It is well known that the β2 and β3 subunits can be interchanged with no effect on Bz ligand affinity or efficacy. […] These studies are similar to those performed in the laboratory of Bryan Roth who has already expressed the receptors employing the work of Kucken et. al. and Gray et. al.
(§2) In brief, for membrane preparations, the cells were scraped on to the ice and diluted into 5 mL of phosphate buffered saline (pH=7.40) and cells pelleted by centrifugation for 5 min. at 4° C. The pellet was resuspended in 1 mL of 50 mM Tris-acetate buffer (pH 7.4) and centrifuged at 18,000 g for 20 min. […] Each pellet were diluted to 6 mL and then 100 μL of membranes were incubated with approximately 1 nM final concentration of [^3H]Ro 15-1788 in a total volume of 250 μL together with serial dilutions of test compound for 90 min. on ice. The membranes were harvested in polyethyleneimine-pretreated Whatman GF/C filters and after drying and addition of scintillation cocktail, counted in a scintillation counter. The cpm retained on the filters was plotted against log concentration (M) and fitted to one site competition equation to obtain the Ki using Graphpad Prizm (V4.0) using the Cheng-Prusoff approximation.

Assay [2] deals with T1, α2β3γ2 benzodiazepine receptor GABA(A) isoform (UniProt P18507+P47869).
T1 sequence (P18507 1-475): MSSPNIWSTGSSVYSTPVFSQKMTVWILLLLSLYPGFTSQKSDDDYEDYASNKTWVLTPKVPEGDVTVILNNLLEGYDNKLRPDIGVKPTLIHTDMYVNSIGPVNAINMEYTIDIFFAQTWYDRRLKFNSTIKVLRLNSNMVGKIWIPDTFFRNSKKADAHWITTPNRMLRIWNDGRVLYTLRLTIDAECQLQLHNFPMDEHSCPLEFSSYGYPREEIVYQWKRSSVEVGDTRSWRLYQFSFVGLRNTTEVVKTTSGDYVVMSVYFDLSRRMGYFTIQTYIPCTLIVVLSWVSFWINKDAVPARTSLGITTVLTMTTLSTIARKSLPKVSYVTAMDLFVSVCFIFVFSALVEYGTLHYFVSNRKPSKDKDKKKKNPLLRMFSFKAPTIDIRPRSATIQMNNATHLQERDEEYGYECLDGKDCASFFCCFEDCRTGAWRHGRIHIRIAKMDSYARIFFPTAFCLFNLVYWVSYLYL
T1 sequence (P47869 1-451): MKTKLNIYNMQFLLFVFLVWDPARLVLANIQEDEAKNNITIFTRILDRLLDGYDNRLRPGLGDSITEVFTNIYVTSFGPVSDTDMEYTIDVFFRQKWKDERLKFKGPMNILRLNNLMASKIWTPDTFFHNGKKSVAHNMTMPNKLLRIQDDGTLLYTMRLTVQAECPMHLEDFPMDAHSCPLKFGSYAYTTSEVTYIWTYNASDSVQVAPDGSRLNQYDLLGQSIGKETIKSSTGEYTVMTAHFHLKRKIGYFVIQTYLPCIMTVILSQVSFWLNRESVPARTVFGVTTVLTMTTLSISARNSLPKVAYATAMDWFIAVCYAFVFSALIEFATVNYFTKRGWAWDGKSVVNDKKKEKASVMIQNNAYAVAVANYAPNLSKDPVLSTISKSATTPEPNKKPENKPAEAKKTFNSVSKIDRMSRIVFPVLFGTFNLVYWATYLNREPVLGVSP
The assay can be described thus: Radioligand competition binding, α2β3γ2 BzR/GABA(A) isoform. Further details: species or system human and rat. The method, then: as §1, §2

The target in assay [3] is T2, α1β3γ2 benzodiazepine receptor GABA(A) isoform (UniProt P14867+P18507).
T2 sequence (P14867 1-456): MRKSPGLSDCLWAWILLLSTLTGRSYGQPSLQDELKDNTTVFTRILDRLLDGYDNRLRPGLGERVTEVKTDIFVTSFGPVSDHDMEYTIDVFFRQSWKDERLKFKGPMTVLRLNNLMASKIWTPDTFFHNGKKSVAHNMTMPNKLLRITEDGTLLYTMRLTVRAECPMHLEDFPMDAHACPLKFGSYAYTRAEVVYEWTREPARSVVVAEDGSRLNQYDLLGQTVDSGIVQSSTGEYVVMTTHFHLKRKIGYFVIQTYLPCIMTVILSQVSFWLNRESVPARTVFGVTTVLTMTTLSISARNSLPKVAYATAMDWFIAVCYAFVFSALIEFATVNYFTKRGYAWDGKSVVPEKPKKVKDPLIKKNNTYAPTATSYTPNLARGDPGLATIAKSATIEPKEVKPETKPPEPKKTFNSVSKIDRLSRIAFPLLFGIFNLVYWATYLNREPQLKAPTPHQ
T2 sequence (P18507 1-475): T1 sequence (P18507 1-475)
The assay can be described thus: Radioligand competition binding, α1β3γ2 BzR/GABA(A) isoform. Set-up: Ki α1; means of two determinations; Ki α1; α1; species or system human and rat. The method, then:
as §1, §2
For orientation: In a radioligand displacement assay an active substance lowers the binding of a labelled ligand.

Assay [4] has as its target T3, α5β3γ2 benzodiazepine receptor GABA(A) isoform (UniProt P18507+P31644).
T3 sequence (P18507 1-475): T1 sequence (P18507 1-475)
T3 sequence (P31644 1-462): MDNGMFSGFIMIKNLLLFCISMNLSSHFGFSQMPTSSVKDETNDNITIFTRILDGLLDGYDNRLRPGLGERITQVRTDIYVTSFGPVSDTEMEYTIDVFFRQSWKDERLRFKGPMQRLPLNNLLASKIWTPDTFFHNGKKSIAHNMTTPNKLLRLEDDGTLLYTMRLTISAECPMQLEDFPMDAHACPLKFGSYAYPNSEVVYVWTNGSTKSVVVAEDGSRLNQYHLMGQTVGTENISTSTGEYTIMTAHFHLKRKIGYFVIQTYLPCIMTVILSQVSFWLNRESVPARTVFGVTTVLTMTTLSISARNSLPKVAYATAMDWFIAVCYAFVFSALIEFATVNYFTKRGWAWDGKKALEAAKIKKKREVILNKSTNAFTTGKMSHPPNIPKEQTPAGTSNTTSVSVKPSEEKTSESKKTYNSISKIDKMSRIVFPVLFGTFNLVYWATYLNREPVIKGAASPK
Briefly: Radioligand competition binding, α5β3γ2 BzR/GABA(A) isoform. Further details: Ki α5; means of two determinations; Ki α5; α5; other: text; species or system human and rat.

Setting [5] is: read-out: Ki α6, Table I, means of two determinations.
[6] abbreviates: read-out: α6, untitled table of lead compounds, unit inferred.
The mark [7] stands for this setting: read-out: Ki α2, Table I, means of two determinations.
Where [8] appears, read: read-out: α2, untitled table of lead compounds, unit inferred.
Where [9] appears, read: read-out: Ki α1, Table I, means of two determinations.
Setting [10] is: read-out: α1, untitled table of lead compounds, unit inferred.
The mark [11] stands for this setting: read-out: Ki α5, Table I, means of two determinations.
Setting [12] is: read-out: α5, untitled table of lead compounds, unit inferred.

Turning to `CCOC(=O)c1ncn2c1CN=C(c1ccccc1)c1cc(-c3ccccc3)ccc1-2` [DM-I-81, Ethyl 8-phenyl-6-phenyl-4H-benzo[f]imidazo[1,5-a][1,4]diazepine-3-carboxylate], at α5β3γ2 GABAA receptor, the “efficacy / modulation of GABA elicited currents at α5 (in words)” value (“efficacy / modulation” for short) was “moderate agonist activity”. In addition, the Ki in assay [1] (setting [5]) is above 2000 nM; in assay [1] (setting [6]) it was above 2000 nM; in assay [2] (setting [7]) it was above 2 µM; in assay [2] (setting [8]) it was above 2 µM; in assay [3] (setting [9]), above 2000 nM; in assay [3] (setting [10]), above 2000 nM. In addition, the Ki in assay [4] (setting [11]) amounted to 176 nM; in assay [4] (read-out: binding potency at α5 subtypes), 174 nM; in assay [4] (setting [12]), 176 nM.
`COCc1ncn2c1CN(C)C(=O)c1cc(Cl)ccc1-2` [PWZ-029, methyl(8-chloro-5,6-dihydro-5-methyl-6-oxo-4H-imidazo[1,5-α][1,4]benzodiazepin-3-yl)methyl ether]: the “efficacy / modulation” value on α5β3γ2 GABAA receptor was “selective inverse agonist”. Further, the Ki in assay [1] (setting [5]) is above 300 nM; in assay [1] (setting [6]) it was above 300 nM; in assay [2] (setting [7]), above 0.3 µM; in assay [2] (setting [8]) it was above 0.3 µM; in assay [3] (setting [9]), above 300 nM; in assay [3] (setting [10]), above 300 nM. Besides, the Ki in assay [4] (setting [11]) and in assay [4] (setting [12]) was 38.8 nM in each case.
With `CCc1ccc2c(c1)C(=O)N(C)Cc1c(C(=O)OCCCOC(=O)c3ncn4c3CN(C)C(=O)c3cc(CC)ccc3-4)ncn1-2` [XLi356, 1,3-Bis(8-ethyl-5,6-dihydro-5-methyl-6-oxo-4H-imidazo[1,5a][1,4]benzodiazepine-3-carboxy)propyl diester], the results for the “efficacy / modulation” value on α5β3γ2 GABAA receptor (listed as XLi-356) and at α5β3γ2 GABAA receptor (listed as Xli356) were “clear agonist” and “appears to be an agonist”, respectively. Further, the Ki in assay [1] (read-out: Ki α6, Table 2, means of two determinations) was found to be 5000 nM; in assay [2] (read-out: Ki α2, Table 2, means of two determinations), 5.98 µM; in assay [2] (setting [8]) it was 5.98 µM; in assay [3] (read-out: Ki α1, Table 2, means of two determinations), 2380 nM; in assay [3] (setting [10]), 2380 nM; in assay [4] (read-out: Ki α5, Table 2, means of two determinations) it was 107 nM. In addition, the Ki in assay [4] (setting [12]) was found to be 107 nM.
